From US20140051679A1, “KINASE INHIBITORS AND METHOD OF TREATING CANCER WITH SAME” (UNIVERISTY HEALTH NETWORKS, priority 2011, published 2014)

How the values were obtained:
Assay type in all cases: biochemical
human PLK4 = molecular target: T1, human PLK4 (Homo sapiens, UniProt O00444); experiment: PLK4 inhibition assay (indirect ELISA); settings: GST-PLK4 4 nM, 15 μM ATP; read-out: IC50 Ranges PLK4
T1 construct: amino terminal GST fusion of residues 1-391 of human PLK4; made in house; host or cells: E. coli
T1 sequence (O00444 1-391): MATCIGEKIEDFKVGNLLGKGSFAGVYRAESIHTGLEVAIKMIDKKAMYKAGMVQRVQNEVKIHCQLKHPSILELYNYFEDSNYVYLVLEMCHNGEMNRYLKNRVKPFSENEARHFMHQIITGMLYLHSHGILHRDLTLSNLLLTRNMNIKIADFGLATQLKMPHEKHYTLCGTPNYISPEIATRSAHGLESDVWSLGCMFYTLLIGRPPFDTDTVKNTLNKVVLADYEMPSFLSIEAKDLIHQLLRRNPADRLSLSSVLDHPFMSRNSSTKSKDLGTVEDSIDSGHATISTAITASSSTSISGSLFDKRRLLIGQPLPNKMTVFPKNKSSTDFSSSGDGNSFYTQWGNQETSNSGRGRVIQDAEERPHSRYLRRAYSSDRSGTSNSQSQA
Method: Active PLK4 was purified from an E. coli expression system as an amino terminal GST fusion of residues 1-391 of human PLK4. The protein was purified from clarified cell extracts after induction at 15° C. overnight using glutathione sepharose, gel permeation chromatography, and ion exchange (Resource Q). The resulting protein was dephosphorylated with lambda phosphatase (NEB cat#P0753), and resolved from the phosphatase using gluthione sepharose. The dephosphorylated GST-PLK4 was stored in aliquots at −80° C. until use.
PLK4 activity was measured using an indirect ELISA detection system. GST-PLK4 (4 nM) was incubated in the presence of 15 μM ATP (Sigma cat#A7699), 50 mM HEPES-Na^2+ pH 7.5, 10 mM MgCl2, 0.01% Brij 35 (Sigma cat#03-3170), in a 96 well microtitre plate pre-coated with MBP (Millipore cat#30-011). The reaction was allowed to proceed for 30 minutes, followed by 5 washes of the plate with Wash Buffer (phosphate buffered saline supplemented with 0.2% Tween 20), and incubation for 30 minutes with a 1:3000 dilution of primary antibody (Cell Signaling cat#9381). The plate was washed 5 times with Wash Buffer, incubated for 30 minutes in the presence of secondary antibody coupled to horse radish peroxidase (BioRad cat#1721019, 1:3000 concentration), washed an additional 5 times with Wash Buffer, and incubated in the presence of TMB substrate (Sigma cat#T0440). The colourimetric reaction was allowed to continue for 5 minutes, followed by addition of stop solution (0.5 N sulphuric acid), and quantified by detection at 450 nm with either a monochromatic or filter based plate reader (Molecular Devices M5 or Beckman DTX880, respectively).
Compound inhibition was determined at either a fixed concentration (10 μM) or at a variable inhibitor concentration (typically 0.5 μM to 0.001 μM in a 10 point dose response titration). Compounds were pre-incubated in the presence of enzyme for 15 minutes prior to addition of ATP and the activity remaining quantified using the above described activity assay. The % Inhibition of a compound was determined using the following formula; % Inhibition=100×(1-(experimental value−background value)/(high activity control−background value)). The IC50 value was determined using a non-linear 4 point logistic curve fit (XLfit4, IDBS) with the formula; (A+(B/(1+((x/C)̂D)))), where A=background value, B=range, C=inflection point, D=curve fit parameter.

Aurora B = molecular target: T2, Aurora B (Homo sapiens, UniProt Q96GD4); experiment: Aurora B inhibition assay (Z-Lyte); settings: 28 nM Aurora B, 128 μM ATP; read-out: IC50 Ranges Aurora B
T2 construct: purchased Invitrogen PV3970
T2 sequence (Q96GD4 whole entry): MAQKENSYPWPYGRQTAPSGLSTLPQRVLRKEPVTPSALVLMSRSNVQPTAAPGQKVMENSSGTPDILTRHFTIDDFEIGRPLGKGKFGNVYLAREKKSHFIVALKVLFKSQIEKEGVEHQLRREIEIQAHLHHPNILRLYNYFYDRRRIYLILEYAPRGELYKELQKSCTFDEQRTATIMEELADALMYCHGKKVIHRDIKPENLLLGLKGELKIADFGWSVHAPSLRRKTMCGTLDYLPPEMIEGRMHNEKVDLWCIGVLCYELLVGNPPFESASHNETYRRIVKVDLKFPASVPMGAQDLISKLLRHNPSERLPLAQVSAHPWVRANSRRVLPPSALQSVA
Method: Aurora B inhibition was determined using the Z-Lyte assay kit from Invitrogen. The assay was performed using the recommended manufacturer's instructions with 128 μM ATP and 28 nM Aurora B (Invitrogen cat #PV3970). The % inhibition values were determined according to the manufacturer's directions and IC50 values were obtained using a non-linear 4 point logistic curve fit (XLfit4, IDBS)

human TTK = molecular target: T3, human TTK (Homo sapiens, UniProt P33981); experiment: TTK inhibition assay (indirect ELISA); settings: GST-TTK 0.68 nM, 16 μM ATP; read-out: IC50 Ranges TTK
T3 construct: amino terminal GST fusion of full length human TTK; purchased Invitrogen
T3 sequence (P33981 1-857): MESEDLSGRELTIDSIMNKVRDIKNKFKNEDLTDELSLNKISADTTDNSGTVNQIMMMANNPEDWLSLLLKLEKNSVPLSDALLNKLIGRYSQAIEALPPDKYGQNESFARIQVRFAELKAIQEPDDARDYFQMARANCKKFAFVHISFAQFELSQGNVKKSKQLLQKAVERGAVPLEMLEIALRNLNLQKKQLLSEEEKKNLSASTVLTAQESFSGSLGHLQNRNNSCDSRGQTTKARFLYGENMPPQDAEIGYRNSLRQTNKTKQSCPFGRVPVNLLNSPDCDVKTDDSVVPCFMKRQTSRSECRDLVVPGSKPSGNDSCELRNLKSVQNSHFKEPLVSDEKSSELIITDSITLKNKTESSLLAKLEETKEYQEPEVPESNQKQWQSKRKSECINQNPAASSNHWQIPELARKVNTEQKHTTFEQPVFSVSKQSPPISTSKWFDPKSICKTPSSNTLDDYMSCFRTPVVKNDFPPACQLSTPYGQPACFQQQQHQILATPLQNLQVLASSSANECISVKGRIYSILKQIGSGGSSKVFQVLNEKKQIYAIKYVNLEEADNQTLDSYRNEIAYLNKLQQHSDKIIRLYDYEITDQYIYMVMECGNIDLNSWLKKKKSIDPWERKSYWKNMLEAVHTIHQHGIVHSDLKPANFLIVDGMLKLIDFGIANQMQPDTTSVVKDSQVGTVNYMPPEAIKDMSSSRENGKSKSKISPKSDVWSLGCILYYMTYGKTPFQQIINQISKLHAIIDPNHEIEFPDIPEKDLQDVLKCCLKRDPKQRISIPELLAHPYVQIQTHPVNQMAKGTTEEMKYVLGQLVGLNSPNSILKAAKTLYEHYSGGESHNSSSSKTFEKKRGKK

Structure (SMILES)	IC50 (human PLK4)	IC50 (Aurora B)	IC50 (human TTK)
O=C(Nc1ccc2[nH]nc(-c3ccc(N4CCC(O)CC4)cc3)c2c1)C(c1ccsc1)N1CCCC1 (centres unmarked) [Example A9, N-(3-(4-(4-hydroxypiperidin-1-yl)phenyl)-1H-indazol-5-yl)-2-(pyrrolidin-1-yl)-2-(thiophen-3-yl)acetamide]	≤ 5 µM	≤ 5 µM	–
O=C(NC(c1ccccn1)C1CC1)c1ccc2[nH]nc(-c3ccc(OC4CN(C5COC5)C4)cc3)c2c1 (centres unmarked) [Example A209, N-(cyclopropyl(pyridin-2-yl)methyl)-3-(4-((1-(oxetan-3-yl)azetidin-3-yl)oxy)phenyl)-1H-indazole-5-carboxamide]	≤ 5 µM	≤ 5 µM	≤ 5 µM
CN1[C@@H]2CC[C@H]1C[C@@H](Oc1ccc(-c3n[nH]c4ccc(C(=O)N[C@H](c5ccccn5)C5CC5)cc34)cc1)C2 [Example A213, N—((S)-cyclopropyl(pyridin-2-yl)methyl)-3-(4-(((1R,3r,5S)-8-methyl-8-azabicyclo[3.2.1]octan-3-yl)oxy)phenyl)-1H-indazole-5-carboxamide]	≤ 5 µM	≤ 5 µM	≤ 5 µM
CN1CCC(Oc2ccc(-c3n[nH]c4ccc(NC(=O)C(c5ccsc5)N5CCCC5)cc34)cc2)CC1 (centres unmarked) [Example A7, N-(3-(4-((1-methylpiperidin-4-yl)oxy)phenyl)-1H-indazol-5-yl)-2-(pyrrolidin-1-yl)-2-(thiophen-3-yl)acetamide]	≤ 5 µM	≤ 5 µM	–
CN1CCC(Oc2ccc(-c3n[nH]c4ccc(NC(=O)C(c5ccccn5)C5CCCC5)cc34)cc2)CC1 (centres unmarked) [Example A179, 2-cyclopentyl-N-(3-(4-((1-methylpiperidin-4-yl)oxy)phenyl)-1H-indazol-5-yl)-2-(pyridin-2-yl)acetamide]	≤ 5 µM	≤ 5 µM	–
O=C(NC(c1ccsc1)C1CC1)c1ccc2[nH]nc(-c3ccc(N4CCC(O)CC4)cc3)c2c1 (centres unmarked) [Example A101, N-(cyclopropyl(thiophen-3-yl)methyl)-3-(4-(4-hydroxypiperidin-1-yl)phenyl)-1H-indazole-5-carboxamide]	≤ 5 µM	≤ 5 µM	–
CCN(C(=O)Nc1ccc2[nH]nc(-c3ccc(N4CCOCC4)cc3)c2c1)c1ccccc1 [Example A72, 1-ethyl-3-(3-(4-morpholinophenyl)-1H-indazol-5-yl)-1-phenylurea]	≤ 5 µM	–	≤ 5 µM
O=C(N[C@H](c1ncccc1Cl)C1CC1)c1ccc2[nH]nc(-c3ccc(OC4CCN(C5COC5)CC4)cc3)c2c1 [Example A216, (S)—N-((3-chloropyridin-2-yl)(cyclopropyl)methyl)-3-(4-((1-(oxetan-3-yl)piperidin-4-yl)oxy)phenyl)-1H-indazole-5-carboxamide]	≤ 5 µM	–	≤ 5 µM
CN1CCN(c2ccc(-c3n[nH]c4ccc(NC(=O)C(c5ccsc5)N5CCCC5)cc34)cc2)C(=O)C1 (centres unmarked) [Example A94, N-(3-(4-(4-Methyl-2-oxopiperazin-1-yl)phenyl)-1H-indazol-5-yl)-2-(pyrrolidin-1-yl)-2-(thiophen-3-yl)acetamide]	≤ 5 µM	–	≤ 5 µM

Further lines, results first:

IC50 (human PLK4)	IC50 (Aurora B)	IC50 (human TTK)	Structure (SMILES)
≤ 5 µM	≤ 5 µM	≤ 5 µM	O=CN1CCC(Oc2ccc(-c3n[nH]c4ccc(C(=O)N[C@H](c5ncccc5Cl)C5CC5)cc34)cc2)CC1 [Example A212, (S)—N-((3-chloropyridin-2-yl)(cyclopropyl)methyl)-3-(4-((1-formylpiperidin-4-yl)oxy)phenyl)-1H-indazole-5-carboxamide]
≤ 5 µM	≤ 5 µM	≤ 5 µM	CN1CCC(Oc2ccc(-c3n[nH]c4ccc(C(=O)N[C@H](c5ccccn5)C5CC5)cc34)cc2)CC1 [Example A214, (S)—N-(cyclopropyl(pyridin-2-yl)methyl)-3-(4-((1-methylpiperidin-4-yl)oxy)phenyl)-1H-indazole-5-carboxamide]
≤ 5 µM	≤ 5 µM	–	CN1CCC(Oc2ccc(-c3n[nH]c4ccc(C(=O)NC(c5ccccn5)C5CCCC5)cc34)cc2)CC1 (centres unmarked) [Example A208, N-(cyclopentyl(pyridin-2-yl)methyl)-3-(4-((1-methylpiperidin-4-yl)oxy)phenyl)-1H-indazole-5-carboxamide]
≤ 5 µM	≤ 5 µM	≤ 5 µM	CN1CCC(Oc2ccc(-c3n[nH]c4ccc(C(=O)NC(c5ccccn5)C5CCC5)cc34)cc2)CC1 (centres unmarked) [Example A210]
≤ 5 µM	≤ 5 µM	–	CN1CCC(Oc2ccc(-c3n[nH]c4ccc(C(=O)NC(c5ccccc5)C5CC5)cc34)cc2)CC1 (centres unmarked) [Example A24, N-(cyclopropyl(phenyl)methyl)-3-(4-((1-methylpiperidin-4-yl)oxy)phenyl)-1H-indazole-5-carboxamide]
≤ 5 µM	≤ 5 µM	–	CN(C)CC(=O)N1CCC(Oc2ccc(-c3n[nH]c4ccc(C(=O)NC(c5ccccc5)C5CC5)cc34)cc2)CC1 (centres unmarked) [Example A130, N-(cyclopropyl(phenyl)methyl)-3-(4-((1-(2-(dimethylamino)acetyl)piperidin-4-yl)oxy)phenyl)-1H-indazole-5-carboxamide]
≤ 5 µM	≤ 5 µM	–	CN1CCC(Oc2ccc(-c3n[nH]c4ccc(C(=O)N[C@H](c5ccccc5)C5CC5)cc34)cc2)CC1 [Example A42, (S)—N-(cyclopropyl(phenyl)methyl)-3-(4-((1-methylpiperidin-4-yl)oxy)phenyl)-1H-indazole-5-carboxamide]
≤ 5 µM	≤ 5 µM	–	CC[C@@H](NC(=O)c1ccc2[nH]nc(-c3ccc(OC4CCN(C)CC4)cc3)c2c1)c1ccccc1Cl [Example A131, (R)—N-(1-(2-chlorophenyl)propyl)-3-(4-((1-methylpiperidin-4-yl)oxy)phenyl)-1H-indazole-5-carboxamide]
≤ 5 µM	–	≤ 5 µM	O=C(N[C@@H](c1ncccc1Cl)C1CC1)c1ccc2[nH]nc(-c3ccc(OC4CCN(C5COC5)CC4)cc3)c2c1 [Example A215, (R)—N-((3-chloropyridin-2-yl)(cyclopropyl)methyl)-3-(4-((1-(oxetan-3-yl)piperidin-4-yl)oxy)phenyl)-1H-indazole-5-carboxamide]
